In BindingDB's records for doi:10.3109/14756366.2013.776556 (King Fahd University of Petroleum & Minerals, 2014) one finds Ki data, which are given here for 14 compounds.

Assay [1] has as its target T1, 5-hydroxytryptamine receptor 1A (Homo sapiens, UniProt P08908).
T1 sequence (P08908 whole entry): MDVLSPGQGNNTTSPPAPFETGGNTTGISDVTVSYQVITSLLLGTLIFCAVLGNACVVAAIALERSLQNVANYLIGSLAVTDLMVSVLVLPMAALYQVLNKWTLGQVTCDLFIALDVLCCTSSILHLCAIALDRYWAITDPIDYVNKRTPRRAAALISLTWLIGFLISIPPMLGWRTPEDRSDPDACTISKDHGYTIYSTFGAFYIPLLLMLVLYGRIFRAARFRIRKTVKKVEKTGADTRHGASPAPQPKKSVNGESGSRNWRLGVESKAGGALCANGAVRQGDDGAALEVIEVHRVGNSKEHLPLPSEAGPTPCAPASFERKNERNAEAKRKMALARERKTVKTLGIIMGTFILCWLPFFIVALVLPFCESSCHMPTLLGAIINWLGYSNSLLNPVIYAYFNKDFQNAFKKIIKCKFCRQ
Description: Binding Affinity Assay. The conditions noted are these: pH 7.4; 37 °C. As for the experimental part:
Human-cloned 5-HT1A serotonin receptors stably expressed in HEK293-EBNA cells (Perkin-Elmer, Waltham, MA) were radiolabeled with 1.0nM [3H]-8-OH-DPAT [Fargin et al., J. Biol. Chem., 264:[…]]. Samples containing 32 μg of membrane protein, different concentrations of each compound ranging from 0.1nM to 10 μM were incubated in a final volume of 500 μL of 50mM Tris-HCl pH 7.4, 5mM MgSO4for 120 min at 37 °C. After this incubation time, samples were filtered through Whatman GF/C glass microfiber filters presoaked in polyethylenimine 0.5% for at least 30 min prior to use. The filters were washed twice with 1mL of ice-cold buffer (50mM Tris-HCl, pH 7.4). Nonspecific binding was determined in the presence of 10 μM 5-HT. The radioactivity bound to the filters was measured by liquid scintillation using the LS6500 Multi-Purpose scintillation Counter, Beckman.

Another assay addresses D(2) dopamine receptor (Homo sapiens, UniProt P14416). Description: Binding Affinity Assay. The following applies: pH 7.4; 25 °C. As for the experimental part:
The samples were incubated for 120 min at 25 °C, then the incubation was stopped by rapid filtration through Whatman GF/C glass fiber filters (presoaked in 0.5% polyethylenimine for 60 min). The filters were washed three times in 1mL of ice-cold 50mM Tris, 0.9% NaCl, pH 7.4. Nonspecific binding was determined in the presence of 10 μM haloperidol. The radioactivity bound to the filters was measured by liquid scintillation using a LS6500 Multi-Purpose scintillation Counter, Beckman.

Sequence of D(2) dopamine receptor (P14416 whole entry): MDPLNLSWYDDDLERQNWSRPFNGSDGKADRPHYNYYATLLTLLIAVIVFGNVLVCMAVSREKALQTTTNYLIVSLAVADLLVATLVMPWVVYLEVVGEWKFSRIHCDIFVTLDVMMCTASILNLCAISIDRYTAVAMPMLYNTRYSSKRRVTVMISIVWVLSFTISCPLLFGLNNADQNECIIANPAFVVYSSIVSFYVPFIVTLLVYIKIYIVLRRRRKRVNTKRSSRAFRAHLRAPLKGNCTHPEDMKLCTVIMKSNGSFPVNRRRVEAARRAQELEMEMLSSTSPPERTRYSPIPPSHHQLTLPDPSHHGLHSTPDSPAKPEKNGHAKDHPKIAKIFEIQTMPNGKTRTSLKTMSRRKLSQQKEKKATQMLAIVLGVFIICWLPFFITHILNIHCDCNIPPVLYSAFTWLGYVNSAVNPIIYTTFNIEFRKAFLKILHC

`O=c1[nH]c2cccc(N3CCN(Cc4cccc(-c5ccccc5)c4)CC3)c2o1`: in assay [1], the affinity corresponds to a Ki of 7.19 nM.
For `Fc1ccc(-c2cncc(CN3CCN(c4cccc5c4OCCO5)CC3)c2)cc1` [1-(2,3-dihydro-1,4-benzodioxin-5-yl)-4-[[5-(4-fluorophenyl)pyridin-3-yl]methyl]piperazine], the Ki (as a rule, a dissociation constant, usually derived from enzyme kinetics or from competition with a known ligand) is 8.4 nM on D(2) dopamine receptor and 8.64 nM in assay [1].
Take `O=c1[nH]c2ccc(C3CCN(Cc4cccc(C5=CCCC5)c4)CC3)cc2[nH]1` [5-(1-(3-cyclopentenylbenzyl)piperidin-4-yl)-1H-benzo[d]imidazol-2(3H)-one (5e)]: the Ki amounted to 8.12 nM on D(2) dopamine receptor and 1.2 nM in assay [1].
The matching figures for `O=c1[nH]c2ccc(C3CCN(Cc4ccc(-c5ccc(F)cc5)cc4)CC3)cc2[nH]1` [5-(1-((4'-Fluorobiphenyl-4-yl)methyl)piperidin-4-yl)-1H-benzo[d]imidazol-2(3H)-one (5b)]: 34.4 nM and 16.2 nM.
`O=c1[nH]c2ccc(C3CCN(Cc4cncc(-c5ccc(F)cc5)c4)CC3)cc2[nH]1` [5-(1-((5-(4-Fluorophenyl)pyridin-3-yl)methyl)piperidin-4-yl)-1H-benzo[d]imidazol-2(3H)-one (5d)]: the Ki at D(2) dopamine receptor came to 24.6 nM; in assay [1], 9.42 nM.
The matching figures for `O=c1[nH]c2ccc(C3CCN(Cc4cncc(C5=CCCC5)c4)CC3)cc2[nH]1` [5-(1-((5-cyclopentenylpyridin-3-yl)methyl)piperidin-4-yl)-1Hbenzo[d]imidazol-2(3H)-one (5f)]: 4.26 nM and 6.3 nM.
The matching figures for `O=c1[nH]c2ccc(C3CCN(Cc4cncc(-c5ccccc5)c4)CC3)cc2[nH]1` [5-(1-((5-phenylpyridin-3-yl)methyl)piperidin-4-yl)-1H-benzo[d]imidazol-2(3H)-one (5c)]: 18.5 nM and 6.72 nM.
As to `O=c1[nH]c2ccc(C3CCN(Cc4ccc(-c5ccccc5)cc4)CC3)cc2[nH]1` [5-(1-(biphenyl-4-ylmethyl)piperidin-4-yl)-1H-benzo[d]imidazol-2(3H)-one (5a)], the inhibition constant (Ki) stood at 96.2 nM on D(2) dopamine receptor and 34.2 nM in assay [1].
The matching figures for `O=c1[nH]c2ccc(N3CCN(Cc4cccc(C5=CCCC5)c4)CC3)cc2[nH]1` [5-(4-(3-cyclopentenylbenzyl)piperazin-1-yl)-1H-benzo[d]imidazol-2(3H)-one (6e)]: 10.4 nM and 3.1 nM.
Regarding `O=c1[nH]c2ccc(N3CCN(Cc4ccc(-c5ccc(F)cc5)cc4)CC3)cc2[nH]1` [5-(4-((4'-fluorobiphenyl-4-yl)methyl)piperazin-1-yl)-1H-benzo[d]imidazol-2(3H)-one (6b)], the Ki at D(2) dopamine receptor is 62.6 nM; in assay [1], 27.2 nM.
For the compound `O=c1[nH]c2ccc(N3CCN(Cc4cncc(-c5ccc(F)cc5)c4)CC3)cc2[nH]1` [5-(4-((5-(4-fluorophenyl)pyridin-3-yl)methyl)piperazin-1-yl)-1H-benzo[d]imidazol-2(3H)-one (6d)], the values for the Ki (at D(2) dopamine receptor; in assay [1]) were 82 nM and 11.4 nM, respectively.
The matching figures for `O=c1[nH]c2ccc(N3CCN(Cc4cncc(C5=CCCC5)c4)CC3)cc2[nH]1` [5-(4-((5-cyclopentenylpyridin-3-yl)methyl)piperazin-1-yl)-1H-benzo[d]imidazol-2(3H)-one (6f)]: 3.1 nM and 1.7 nM.
Consider `O=c1[nH]c2ccc(N3CCN(Cc4cncc(-c5ccccc5)c4)CC3)cc2[nH]1` [5-(4-((5-phenylpyridin-3-yl)methyl)piperazin-1-yl)-1H-benzo[d]imidazol-2(3H)-one (6c)], for which the Ki at D(2) dopamine receptor came to 12.6 nM; in assay [1], 5.3 nM.
Take `O=c1[nH]c2ccc(N3CCN(Cc4ccc(-c5ccccc5)cc4)CC3)cc2[nH]1` [5-(4-(biphenyl-4-ylmethyl)piperazin-1-yl)-1H-benzo[d]imidazol-2(3H)-one (6a)]: the Ki came to 42.2 nM at D(2) dopamine receptor and 46.3 nM in assay [1].
